Columns and labels:
Pin1 [1] = target: T1, Pin1 (Homo sapiens, UniProt Q13526); assay: Pin1 fluorescence polarization competition assay with Tamra-probe (secondary); details: for Tamra Secondary Curve Class: Tamra-probe; for Emax: read-out: Tamra Secondary Efficacy
Pin1 [2] = target: T1, Pin1; assay: confirmatory Pin1 fluorescence polarization competition assay (Alexa488 reconfirmed); details: for Alexa488 Reconfirmed Curve Class: confirmatory retest; for Emax: read-out: Alexa488 Reconfirmed Efficacy;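 as to all read-outs here: Pin1 competition with a HiFluor488-labelled peptide probe, read as fluorescence polarization after 10 min at room temperature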
Pin1 [3] = target: T1, Pin1; assay: Pin1 fluorescence polarization competition assay, primary qHTS (HiFluor-488 / Alexa488 probe);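 also: Pin1 protein with fluorescent peptide probe, compound displacement read by fluorescence polarization, percent inhibition derived from corrected polarization values, concentration-response curves in 1536-well format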
Method: The goal of this assay was to identify small-molecule inhibitors of Pin1 using a fluorescence polarization competition assay (FIG. 1). […] Candidate compounds were screened in a concentration-titration series (e.g., 57 μM to 0.7 nM).
Pin1 (0.6 μM) was dispensed into black, solid 1536-well plates (32 rows by 48 columns) at 2 μL/well in Pin1 buffer (10 mM HEPES (pH 7.5), 10 mM NaCl, 0.01% Tween20, 1 mM DTT, and 1% glycerol). Next, 23 nL of compound or DMSO was delivered to each well using a pin tool (tip wash sequence: DMSO, IPA, MeOH, 3 s vacuum dry). Two μL of Pin1-1b-HiFluor488 peptide in buffer (10 mM HEPES (pH 7.5), 10 mM NaCl, 0.01% Tween20, 1 mM DTT, and 1% glycerol, 0.02 μM Pin1-1b-HiFluor488) or DMSO was then dispensed to each well using a pin tool (tip wash sequence: DMSO, IPA, MeOH, 3 s vacuum dry), and plates were incubated at room temperature for 10 min (Table 2). Each plate included controls with no candidate inhibitory compound (32 wells), with unlabeled Pin1-1c titration (3.5 mM to 0.020 mM in a 1:2 dilution series including 2 replicates per concentration; 32 wells), and without Pin1 (64 wells).
The fluorescence polarization signal of each well was measured on a ViewLux® plate reader using a 480/20 nm excitation filter and 540/25 nm S and P emission filters with a 20 second exposure with 2× binning (Table 2). Percent inhibitory activity was determined from corrected fluorescence polarization values.
Concentration-response curves were fitted to the signals arising from the resulting fluorescence polarization. The concentration-effect curves were then classified based on curve quality (r^2), response magnitude, and degree of measured activity. Compounds were subsequently categorized based on their curve class.
Curves showing change polarized fluorescence may be categorized into 5 classes. Class 1 includes complete curves, having 2 asymptotes and an r^2 value of ≥0.9, with an efficacy of either >80% (class 1.1) or ≤80% (class 1.2). Class 1 curves may also be classified as noisy curves when efficacy is >80% and r^2<0.9 (class 1.3) or when efficacy is ≤80% and r^2<0.9 (class 1.4). Class 2 includes incomplete curves having 1 asymptote and an r^2 value of either >0.9 (subclass a) or <0.9 (subclass b), with an efficacy of either >80% (class 2.1) or ≤80% (class 2.2). Class 2 curves may also be classified as noisy curves when efficacy is >80% and r^2<0.9 (class 2.3) or when efficacy is ≤80% and r^2<0.9 (class 2.4). Class 3 includes single point activity curves having 1 asymptote and an efficacy >3 SD from the mean activity of the sample field at the highest tested concentration. […] A fifth class captures any curves not otherwise classified (FIG. 4).

[4] = Alexa488 Primary Potency, primary qHTS
[5] = Average HTS Potency, average over Alexa488 primary, Alexa488 reconfirmed and Tamra secondary assays
[6] = read-out: Alexa488 Primary Efficacy

T1 sequence (Q13526 whole entry): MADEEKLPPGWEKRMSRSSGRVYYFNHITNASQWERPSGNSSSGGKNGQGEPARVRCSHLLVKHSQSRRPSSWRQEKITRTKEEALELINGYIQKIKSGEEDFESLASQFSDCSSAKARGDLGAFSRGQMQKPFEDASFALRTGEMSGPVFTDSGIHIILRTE

With COC(=O)COc1ccc(C2Nc3c(Cl)ccc(C(=O)O)c3C3C=CCC32)cc1 (stereo not drawn) [Compound 42] the IC50 (Pin1 [1]) was 24 µM, the “Tamra Secondary Curve Class” value (Pin1 [1]) was 2.2 (≤80% (class 2.2)) and the Emax (Pin1 [1]) was 73%. For the same compound, the IC50 (Pin1 [2]) was 27 µM, the “Alexa488 Reconfirmed Curve Class” value (Pin1 [2]) was 2.2 (≤80% (class 2.2)) and the Emax (Pin1 [2]) was 82%. For the same compound, the IC50 (Pin1 [3]; [4]) was 19 µM, the IC50 (Pin1 [3]; [5]) was 23 µM and the “Alexa488 Primary Curve Class” value (Pin1 [3]; primary qHTS) was 1.2 (≤80% (class 1.2)). It also gave an Emax (Pin1 [3]; [6]) of 73% and an Emax (Pin1 [3]; read-out: Average HTS Efficacy) of 76%.
For O=C(O)c1cc(Cl)c2c(c1)[C@@H]1C=CC[C@@H]1[C@H](c1ccc(S(=O)(=O)N3CCOCC3)cc1)N2 [Compound 41], the IC50 (Pin1 [1]) was 19 µM, the “Tamra Secondary Curve Class” value (Pin1 [1]) was 2.2 (≤80% (class 2.2)) and the Emax (Pin1 [1]) was 80%. For the same compound, the IC50 (Pin1 [2]) was 19 µM, the “Alexa488 Reconfirmed Curve Class” value (Pin1 [2]) was 2.2 (≤80% (class 2.2)) and the Emax (Pin1 [2]) was 62%. For the same compound, the IC50 (Pin1 [3]; [4]) was 30 µM, the IC50 (Pin1 [3]; [5]) was 23 µM and the “Alexa488 Primary Curve Class” value (Pin1 [3]; primary qHTS) was 2.2 (≤80% (class 2.2)). It also gave an Emax (Pin1 [3]; [6]) of 88% and an Emax (Pin1 [3]; read-out: Average HTS Efficacy) of 77%.
Work on CCn1nc(-c2ccccc2C)nc2c(=O)n(C)c(=O)nc1-2 [Compound 48] yielded an IC50 (Pin1 [2]) of 1 µM, an Emax (Pin1 [2]) of 73% and an IC50 (Pin1 [3]; [4]) of 1 µM. It also gave an IC50 (Pin1 [3]; [5]) of 1 µM, an Emax (Pin1 [3]; [6]) of 53% and an Emax (Pin1 [3]; read-out: Average HTS Efficacy) of 63%.
In the case of O=C(O)C1Nc2c(C(F)(F)F)ccc(Cl)c2C2C=CCC12 (stereo not drawn) [Compound 8], the IC50 (Pin1 [1]) is reported as 18 µM, the “Tamra Secondary Curve Class” value (Pin1 [1]) is reported as 2.2 (≤80% (class 2.2)) and the Emax (Pin1 [1]) is reported as 52%. The “Alexa488 Reconfirmed Curve Class” value (Pin1 [2]) was 2.2 (≤80% (class 2.2)), the Emax (Pin1 [2]) was 103% and the IC50 (Pin1 [3]; [4]) was 45 µM. For the same compound, the IC50 (Pin1 [3]; [5]) was 31 µM, the “Alexa488 Primary Curve Class” value (Pin1 [3]; primary qHTS) was 2.2 (≤80% (class 2.2)) and the Emax (Pin1 [3]; [6]) was 67%. The Emax (Pin1 [3]; read-out: Average HTS Efficacy) was 74%.
O=C(O)C1Nc2c(Cl)cc(Cl)c(Cl)c2C2C=CCC12 (stereo not drawn) [Compound 5] was tested, and the IC50 (Pin1 [1]) was 2 µM, the “Tamra Secondary Curve Class” value (Pin1 [1]) was 1.2 (≤80% (class 1.2)) and the Emax (Pin1 [1]) was 61%. The IC50 (Pin1 [2]) was 2 µM, the “Alexa488 Reconfirmed Curve Class” value (Pin1 [2]) was 1.2 (≤80% (class 1.2)) and the Emax (Pin1 [2]) was 75%. For the same compound, the IC50 (Pin1 [3]; [4]) was 18 µM, the IC50 (Pin1 [3]; [5]) was 7 µM and the “Alexa488 Primary Curve Class” value (Pin1 [3]; primary qHTS) was 1.2 (≤80% (class 1.2)). It also gave an Emax (Pin1 [3]; [6]) of 53% and an Emax (Pin1 [3]; read-out: Average HTS Efficacy) of 63%.
O=C(O)C1Nc2c(O)cccc2C2C=CCC12 (stereo not drawn) [Compound 4] was tested, and the IC50 (Pin1 [1]) was 11 µM, the “Tamra Secondary Curve Class” value (Pin1 [1]) was 2.2 (≤80% (class 2.2)) and the Emax (Pin1 [1]) was 37%. For the same compound, the IC50 (Pin1 [3]; [4]) was 3 µM, the IC50 (Pin1 [3]; [5]) was 7 µM and the “Alexa488 Primary Curve Class” value (Pin1 [3]; primary qHTS) was 1.2 (≤80% (class 1.2)). The Emax (Pin1 [3]; [6]) was 23% and the Emax (Pin1 [3]; read-out: Average HTS Efficacy) was 30%.
Cc1ccc(NC(=O)CN(C)C(=O)c2cccc(-n3cccc3)c2)cc1 [Compound 25] was tested, and the IC50 (Pin1 [1]) was 30 µM, the “Tamra Secondary Curve Class” value (Pin1 [1]) was 3.0 and the Emax (Pin1 [1]) was 73%. The IC50 (Pin1 [3]; [4]) was 38 µM, the IC50 (Pin1 [3]; [5]) was 34 µM and the “Alexa488 Primary Curve Class” value (Pin1 [3]; primary qHTS) was 2.2 (≤80% (class 2.2)). For the same compound, the Emax (Pin1 [3]; [6]) was 22% and the Emax (Pin1 [3]; read-out: Average HTS Efficacy) was 47%.
Compound Cc1cccc(N(Cc2cc(=O)[nH]c3ccccc23)C(=O)CCl)c1 [Compound 10] has an IC50 (Pin1 [2]) of 4.8 µM, an Emax (Pin1 [2]) of 82.9% and an IC50 (Pin1 [3]; [4]) of 22.4 µM. The IC50 (Pin1 [3]; [5]) was 13.6 µM, the “Alexa488 Primary Curve Class” value (Pin1 [3]; primary qHTS) was 2.2 (≤80% (class 2.2)) and the Emax (Pin1 [3]; [6]) was 81.3%. The Emax (Pin1 [3]; read-out: Average HTS Efficacy) was 82.1%.
Work on O=C(c1cccs1)c1no[n+]([O-])c1C(=O)c1cccs1 [Compound 28] yielded an IC50 (Pin1 [2]) of 0.08 µM, an Emax (Pin1 [2]) of 99% and an IC50 (Pin1 [3]; [4]) of 1.69 µM. For the same compound, the IC50 (Pin1 [3]; [5]) was 0.89 µM, the Emax (Pin1 [3]; [6]) was 89% and the Emax (Pin1 [3]; read-out: Average HTS Efficacy) was 94%.
COc1cc(/C=C2\SC(=O)N(c3ccc(Cl)cc3)C2=O)cc([N+](=O)[O-])c1O [Compound 38] was tested, and the IC50 (Pin1 [2]) was 6 µM, the Emax (Pin1 [2]) was 98% and the IC50 (Pin1 [3]; [4]) was 19 µM. For the same compound, the IC50 (Pin1 [3]; [5]) was 13 µM, the Emax (Pin1 [3]; [6]) was 103% and the Emax (Pin1 [3]; read-out: Average HTS Efficacy) was 101%.
In the case of CCOc1cc(Br)cc(C(c2c(C(=O)O)[nH]c3ccccc23)c2c(C(=O)O)[nH]c3ccccc23)c1O [Compound 45], the IC50 (Pin1 [1]) is reported as 38 µM, the “Tamra Secondary Curve Class” value (Pin1 [1]) is reported as 3.0 and the Emax (Pin1 [1]) is reported as 71%. It also gave an IC50 (Pin1 [3]; [4]) of 22 µM, an IC50 (Pin1 [3]; [5]) of 30 µM and an Emax (Pin1 [3]; [6]) of 72%. The Emax (Pin1 [3]; read-out: Average HTS Efficacy) was 71%.
Work on Cn1nc(-c2ccncc2)nc2c(=O)n(C)c(=O)nc1-2 [Compound 49] yielded an IC50 (Pin1 [2]) of 1 µM, an Emax (Pin1 [2]) of 70% and an IC50 (Pin1 [3]; [4]) of 50 µM. For the same compound, the IC50 (Pin1 [3]; [5]) was 25 µM, the “Alexa488 Primary Curve Class” value (Pin1 [3]; primary qHTS) was 1.2 (≤80% (class 1.2)) and the Emax (Pin1 [3]; [6]) was 27%. It also gave an Emax (Pin1 [3]; read-out: Average HTS Efficacy) of 48%.
For O=C(O)c1[nH]c2ccccc2c1C(c1cc(Br)ccc1O)c1c(C(=O)O)[nH]c2ccccc12 [Compound 43], the IC50 (Pin1 [1]) was 24 µM, the “Tamra Secondary Curve Class” value (Pin1 [1]) was 3.0 and the Emax (Pin1 [1]) was 71%. For the same compound, the IC50 (Pin1 [3]; [4]) was 16 µM, the IC50 (Pin1 [3]; [5]) was 20 µM and the “Alexa488 Primary Curve Class” value (Pin1 [3]; primary qHTS) was 1.2 (≤80% (class 1.2)). It also gave an Emax (Pin1 [3]; [6]) of 63% and an Emax (Pin1 [3]; read-out: Average HTS Efficacy) of 67%.
With COc1ccc(NC(=O)CN(C)C(O)c2cc(-c3ccco3)nc3ccccc23)cc1 (stereo not drawn) [Compound 39] the IC50 (Pin1 [1]) was 21 µM, the “Tamra Secondary Curve Class” value (Pin1 [1]) was 3.0 and the Emax (Pin1 [1]) was 53%. The IC50 (Pin1 [3]; [4]) was 14 µM, the IC50 (Pin1 [3]; [5]) was 17 µM and the “Alexa488 Primary Curve Class” value (Pin1 [3]; primary qHTS) was 2.2 (≤80% (class 2.2)). It also gave an Emax (Pin1 [3]; [6]) of 28% and an Emax (Pin1 [3]; read-out: Average HTS Efficacy) of 41%.

Reference: patent US11129835B2, “Methods and compositions for the inhibition of PIN1” (Beth Israel Deaconess Medical Center, Inc., priority 2012, dated 2021)
